Values of other authors in publication PMC8761874 (European Journal of Nuclear Medicine and Molecular Imaging, 2022).
Like-named read-outs stand apart in the source and are kept apart here.

What was measured:
[1] = test system: PD-L1-positive non-small cell lung cancer; conditions: tiragolumab plus atezolizumab, ref [15]
[2] = test system: patients with advanced solid tumors; conditions: ref [13]

Molecule | objective response rate (ORR) ([1]; subgroup with high PD-L1 expression) [%] | objective response rate (ORR) [1] [%] | partial response rate ([2]; in combination with pembrolizumab, n = 8/43) [%] | partial response rate ([2]; monotherapy, n = 1/34) [%]
tiragolumab: anti-TIGIT mAb, given with atezolizumab in the CITYSCAPE trial | 66 | 37 | – | –
MK-7684: anti-TIGIT mAb in a phase I trial (antibody, chains of the INN, looked up, V domains shown) VH: EVQLVQSGAEVKKPGSSVKVSCKASGYTFSSYVMHWVRQAPGQGLEWIGYIDPYNDGAKYAQKFQGRVTLTSDKSTSTAYMELSSLRSEDTAVYYCARGGPYGWYFDVWGQGTTVTVSS VL: DIQMTQSPSSLSASVGDRVTITCRASEHIYSYLSWYQQKPGKVPKLLIYNAKTLAEGVPSRFSGSGSGTDFTLTISSLQPEDVATYYCQHHFGSPLTFGQGTRLEIK | – | – | 19 | 3
